Data reported in ChEMBL document CHEMBL3046007, “Isonicotinic acid hydrazide derivatives: synthesis, antimicrobial activity, and QSAR studies” (Med Chem Res, 2012).
In brackets after ≈: the same amount, converted by molar mass.

Columns and labels:
[1] = test system: Human alphaherpesvirus 2; assay: Antiviral activity against Human herpesvirus 2 strain G infected human HEL cells assessed as inhibition of virus-induced cytopathicity; type: functional, organism-based; conditions: Human alphaherpesvirus 2, strain G
[2] = test system: Human respirovirus 3; assay: Antiviral activity against Human parainfluenza virus 3 infected Vero cells assessed as inhibition of virus-induced cytopathicity; type: functional, organism-based; conditions: Human respirovirus 3, Vero
[3] = test system: Respiratory syncytial virus; assay: Antiviral activity against Respiratory syncytial virus infected human HeLa cells assessed as inhibition of virus-induced cytopathicity; type: functional, organism-based
[4] = test system: Bacillus subtilis; assay: Antimicrobial activity against Bacillus subtilis after 24 hr by serial dilution method; type: functional
[5] = test system: Punta Toro virus; assay: Antiviral activity against Punta Toro virus infected Vero cells assessed as inhibition of virus-induced cytopathicity; type: functional, organism-based
[6] = test system: Aspergillus niger; assay: Antimicrobial activity against Aspergillus niger after 7 days by serial dilution method; type: functional
[7] = test system: Vesicular stomatitis virus; assay: Antiviral activity against Vesicular stomatitis virus infected human HeLa cells assessed as inhibition of virus-induced cytopathicity; type: functional, organism-based
[8] = test system: Candida albicans; assay: Antimicrobial activity against Candida albicans after 48 hr by serial dilution method; type: functional
[9] = test system: Sindbis virus; assay: Antiviral activity against Sindbis virus infected Vero cells assessed as inhibition of virus-induced cytopathicity; type: functional, organism-based
[10] = test system: Escherichia coli; assay: Antimicrobial activity against Escherichia coli after 24 hr by serial dilution method; type: functional
[11] = Cytotoxicity against Chlorocebus aethiops (African green monkey) Vero cells assessed as alteration in cell morphology; type: cell-based; conditions: chlorocebus sabaeus
[12] = test system: Coxsackievirus B4; assay: Antiviral activity against Human coxsackievirus B4 infected Vero cells assessed as inhibition of virus-induced cytopathicity; type: functional, organism-based; conditions: Enterovirus B
[13] = test system: Mammalian orthoreovirus 1; assay: Antiviral activity against Mammalian orthoreovirus 1 infected Vero cells assessed as inhibition of virus-induced cytopathicity; type: functional, organism-based; conditions: Mammalian orthoreovirus 1, Vero
[14] = Cytotoxicity against Homo sapiens (human) MT4 cells; type: cell-based
[15] = test system: Staphylococcus aureus; assay: Antimicrobial activity against Staphylococcus aureus after 24 hr by serial dilution method; type: functional
[16] = Cytotoxicity against Homo sapiens (human) HeLa cells; type: cell-based
[17] = test system: Coxsackievirus B4; assay: Antiviral activity against Human coxsackievirus B4 infected human HeLa cells assessed as inhibition of virus-induced cytopathicity; type: functional, organism-based; conditions: Enterovirus B
[18] = Cytotoxicity against Homo sapiens (human) HEL cells; type: cell-based
[19] = test system: Vaccinia virus; assay: Antiviral activity against Vaccinia virus infected human HEL cells assessed as inhibition of virus-induced cytopathicity; type: functional, organism-based; conditions: Orthopoxvirus vaccinia
[20] = test system: Human immunodeficiency virus 2; assay: Antiviral activity against Human immunodeficiency virus type 2 (ISOLATE ROD) infected human MT4 cells assessed as inhibition of virus-induced cytopathicity; type: functional, organism-based; conditions: Human immunodeficiency virus 2, ISOLATE ROD
[21] = test system: Human alphaherpesvirus 1; assay: Antiviral activity against Human herpesvirus 1 strain KOS infected in human HEL cells assessed as inhibition of virus-induced cytopathicity; type: functional, organism-based; conditions: Human alphaherpesvirus 1, KOS
[22] = test system: Human alphaherpesvirus 1; assay: Antiviral activity against TK(-) aciclovir-resistant Human herpesvirus 1 strain KOS infected in human HEL cells assessed as inhibition of virus-induced cytopathicity; type: functional, organism-based; conditions: Human alphaherpesvirus 1, KOS
[23] = test system: Human immunodeficiency virus 1; assay: Antiviral activity against Human immunodeficiency virus 1 IIIB infected human MT4 cells assessed as inhibition of virus-induced cytopathicity; type: functional, organism-based

Compound	EC50 [1] [mg/L]	EC50 [2] [mg/L]	EC50 [3] [mg/L]	-logMIC [4]	EC50 [5] [mg/L]	-logMIC [6]	EC50 [7] [mg/L]	-logMIC [8]	EC50 [9] [mg/L]	-logMIC [10]	MCC [11] [µg/mL]	EC50 [12] [mg/L]	EC50 [13] [mg/L]	CC50 [14] [mg/L]	-logMIC [15]	MCC [16] [µg/mL]	EC50 [17] [mg/L]	MCC [18] [µg/mL]	EC50 [20] [mg/L]	EC50 [23] [mg/L]	other results
COc1cccc(OC)c1/C=N/N(C(=O)c1ccccc1)C(=O)c1ccncc1	> 100	> 20	> 4	2.49	> 20	2.49	> 4	3.1	> 20	2.49	100	> 20	> 20	12 (≈ 30.8 µM)	2.49	20	> 4	> 100	> 12	> 12	EC50 [19]: > 100 mg/L; EC50 [21]: > 100 mg/L; EC50 [22]: > 100 mg/L
Cc1ccc(/C=N/N(C(=O)c2ccccc2)C(=O)c2ccncc2)cc1	> 100	> 20	> 20	2.14	> 20	2.44	> 20	2.74	> 20	2.44	≥ 20	> 20	> 20	42 (≈ 122 µM)	2.44	100	> 20	> 100	> 42	> 42	EC50 [19]: > 100 mg/L; EC50 [21]: > 100 mg/L; EC50 [22]: > 100 mg/L
O=C(c1ccccc1)N(/N=C/c1ccccc1O)C(=O)c1ccncc1	–	–	–	2.44	–	2.44	–	3.04	–	2.44	–	–	–	–	1.84	–	–	–	–	–	–
O=C(NNC(=O)c1cc([N+](=O)[O-])ccc1Cl)c1ccncc1	–	–	–	2.11	–	2.41	–	2.41	–	2.11	–	–	–	116 (≈ 361 µM)	2.11	–	–	–	> 116	> 116	–
O=C(NNC(=O)c1ccc(Cl)cc1)c1ccncc1	–	–	–	2.34	–	1.74	–	2.64	–	1.74	–	–	–	> 120	2.34	–	–	–	> 120	> 120	–
CC(Cl)C(=O)NNC(=O)c1ccncc1 (stereo not drawn)	–	–	–	1.96	–	2.26	–	2.26	–	2.26	–	–	–	77.5 (≈ 340 µM)	2.26	–	–	–	> 77.5	> 77.5	–
COc1cc(/C=N/N(C(=O)c2ccccc2)C(=O)c2ccncc2)ccc1O	> 100	> 100	> 20	2.18	> 100	2.48	> 20	3.08	> 100	2.48	≥ 100	> 100	> 100	105 (≈ 280 µM)	2.48	100	> 20	> 100	> 105	> 105	EC50 [19]: > 100 mg/L; EC50 [21]: > 100 mg/L; EC50 [22]: > 100 mg/L
CCOc1cc(/C=N/N(C(=O)c2ccccc2)C(=O)c2ccncc2)ccc1O	> 100	> 100	> 100	2.19	> 100	2.19	> 100	2.79	> 100	2.49	> 100	> 100	> 100	≥ 92	2.19	> 100	> 100	> 100	> 92	> 92	EC50 [19]: > 100 mg/L; EC50 [21]: > 100 mg/L; EC50 [22]: > 100 mg/L
CSc1ccc(/C=N/N(C(=O)c2ccccc2)C(=O)c2ccncc2)cc1	> 100	> 100	> 100	2.18	> 100	2.48	> 100	2.78	> 100	2.48	≥ 100	9 (≈ 24 µM)	> 100	69 (≈ 184 µM)	2.18	> 100	> 100	> 100	> 69	> 69	EC50 [19]: > 100 mg/L; EC50 [21]: > 100 mg/L; EC50 [22]: > 100 mg/L
C/C=C/C=N/NC(=O)c1ccncc1	> 20	> 20	> 20	1.88	> 20	2.18	> 20	2.48	> 20	1.88	100	> 20	> 20	11 (≈ 58.1 µM)	1.88	100	> 20	100	> 11	> 11	EC50 [19]: > 20 mg/L; EC50 [21]: > 20 mg/L; EC50 [22]: > 20 mg/L
OC(Cn1cncn1)(Cn1cncn1)c1ccc(F)cc1F [FLUCONAZOLE]	–	–	–	–	–	2.64	–	2.64	–	–	–	–	–	–	–	–	–	–	–	–	–
NNC(=O)c1ccncc1 [ISONIAZID]	–	–	–	1.74	–	2.04	–	2.34	–	1.74	–	–	–	–	2.04	–	–	–	–	–	–
Cc1ccnc2c1NC(=O)c1cccnc1N2C1CC1 [NEVIRAPINE]	–	–	–	–	–	–	–	–	–	–	–	–	–	> 4	–	–	–	–	> 4	–	–
CCn1cc(C(=O)O)c(=O)c2cc(F)c(N3CCNCC3)cc21 [NORFLOXACIN]	–	–	–	2.61	–	–	–	–	–	2.61	–	–	–	–	2.61	–	–	–	–	–	–
O=C(N/N=C/c1ccccc1O)c1ccncc1 [SALINAZID]	–	–	–	1.98	–	2.29	–	2.29	–	2.29	–	–	–	2.52 (≈ 10.4 µM)	1.98	–	–	–	> 2.52	> 2.52	–
Cc1cn([C@H]2C[C@H](N=[N+]=[N-])[C@@H](CO)O2)c(=O)[nH]c1=O [ZIDOVUDINE]	–	–	–	–	–	–	–	–	–	–	–	–	–	> 25	–	–	–	–	–	–	–
